Test results reported in patent US12102705B2, “Peptides having inhibitory activity on muscarinic receptor M3” (AZIENDE CHIMICHE RIUNITE ANGELINI FRANCESCO—A.C.R.A.F. …, priority 2018, dated 2024).
pIC50: −log10 of the molar value. Peptide text beside a SMILES is read from it. * marks the point of attachment. Palmitoyl = CCCCCCCCCCCCCCCC(=O)*

How the values were obtained:
[1] = test system: sweating induced by pilocarpine; assay: Antiperspirant effect on chronic administration, pilocarpine-induced mouse model of sweat secretion; type: in vivo, C57BL6/Rcc male mice; conditions: during 4 weeks treatment, 10 and 100 μg/paw
Procedure: This example evaluated chronic effects of peptide of invention Seq. ID No. 2, palmitoylated form, in an in vivo sweating model. This model was established using pilocarpine, a non-selective agonist of muscarinic receptors, in 11-weeks old C57BL6/Rcc male mice. Test compound was locally administered three times per week for 4 weeks (Treatment). Sweat was induced by intraplantar (i.pl) injection of pilocarpine (3 μg/paw) in the right hind paw (Sweating) on weeks 1, 2 and 4 according to the table H.
Test compound is the peptide of the invention having the following sequence (Sequence ID No. 2): • Palm-WMRLK-NH2
Test compound was injected i.pl. on the right hind paw (1, 10 and 100 μg in). Vehicle injected was saline solution.
(§1) Sweating was monitored through amylase activity detection on skin surface using iodine/starch reaction. Dark sweating drops were quantified after 5 minutes induction counting number of drops per paw in each condition. Sample n=5-6 individuals per group. Data are expressed as mean±standard error of the mean (SEM). Raw data was normalized as percentage respect to non-injected stimulated individuals (Control, 100%). Statistical analysis was one-way ANOVA followed by Dunnett's post-hoc multiple comparison test comparing each condition with the corresponding control group, ****p<0.0001 ***p<0.001 **p<0.01, *p<0.05

[2] = target: T1, human muscarinic receptor M3 (Homo sapiens, UniProt P20309); assay: Inhibition of M3-acetylcholine activation, Fluo-4 NW calcium fluorescence; type: cell-based; conditions: 50 min, 50 min incubation, 10 nM acetylcholine
T1 construct: expressed in transfected cells; cultured in Ham's F-12 medium
T1 sequence (P20309 whole entry): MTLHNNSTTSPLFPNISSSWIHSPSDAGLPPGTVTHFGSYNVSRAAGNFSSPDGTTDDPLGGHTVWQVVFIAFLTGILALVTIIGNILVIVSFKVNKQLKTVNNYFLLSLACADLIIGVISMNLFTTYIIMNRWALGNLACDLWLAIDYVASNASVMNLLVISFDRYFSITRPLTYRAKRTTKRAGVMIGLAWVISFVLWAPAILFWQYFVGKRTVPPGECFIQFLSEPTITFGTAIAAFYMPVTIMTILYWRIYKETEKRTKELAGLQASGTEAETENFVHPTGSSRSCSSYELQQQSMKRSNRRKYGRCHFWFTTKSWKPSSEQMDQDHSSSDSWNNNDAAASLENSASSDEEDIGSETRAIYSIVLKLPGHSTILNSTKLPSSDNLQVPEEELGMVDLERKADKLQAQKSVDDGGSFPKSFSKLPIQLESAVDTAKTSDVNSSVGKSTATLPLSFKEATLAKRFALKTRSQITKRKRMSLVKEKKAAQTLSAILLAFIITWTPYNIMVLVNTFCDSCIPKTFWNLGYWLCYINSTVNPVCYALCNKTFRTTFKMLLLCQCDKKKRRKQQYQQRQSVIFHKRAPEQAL
Procedure: (§2) Epithelial stable cell line constitutively expressing human muscarinic receptor M3 was used to assess peptides activity. Cells were seeded in 96-well plates at 50% cell confluence in 100 μL of complete Ham's F-12 medium. After 24 hours, medium was removed and cells were incubated with 90 μL/well of a solution of the peptides of the invention at 100, 50 or 10 μM or DMSO as vehicle. Peptides were dissolved in Fluo-4 NW (Invitrogen) fluorescent calcium probe assay buffer containing Probenecid, following manufacturer's instructions for 50 min at 37° C. in a CO2 incubator. Afterwards, M3 activity was determined by reading the fluorescence in a FLUOstar Galaxy reader (BMG LabTechnologies) using 485 nm filter for excitation and 520 nm for emission, recording signal before and after M3 activation with 10 nM acetylcholine. Fluorescence measurements were normalized to acetylcholine maximum fluorescence signal in vehicle treated cells. Atropine (100 nM) was used as positive control for inhibition. Inhibition values of M3 activity were calculated as percentages by considering maximum fluorescence corresponding to acetylcholine-M3 activation and minimum as non-stimulated cells. Table D details inhibition values of M3 activity inhibition obtained for the peptides of invention.

[3] = test system: sweating induced by pilocarpine; assay: Antiperspirant effect on acute administration, pilocarpine-induced mouse model of sweat secretion; type: in vivo, C57BL6/Rcc male mice; conditions: at 10, 30 and 100 μg
Procedure: This example evaluated acute effects of the peptide of invention Seq. ID No 2, pamitoylated form, in an in vivo sweating model induced by pilocarpine. This model was established using pilocarpine, a non-selective agonist of muscarinic receptors, in 11-weeks old C57BL6/Rcc male mice.
Test compound is the peptide of the invention having the following sequence (Sequence ID No. 2): • Palm-WMMRLK-NH2
Test compound was injected i.pl. on the right hind paw (10, 30 and 100 μg) 30 min before sweating stimulation. Vehicle was saline solution.
as §1, with “condition.” for “condition. Sample n=5-6 individuals per group.”, “100%) and saline-injected non-stimulated individuals (Vehicle, 0%).” for “100%).”

[4] = target: T1, human muscarinic receptor M3; assay: Dose-response inhibitory effect on M3 activity (IC50); type: cell-based
Procedure: as §2
Characterization of Seq. ID No. 1, 3-8 peptides efficiency was obtained by calculating half maximal inhibitory concentration (IC50). For this purpose, experimental procedure regarding cell culture and fluorescent calcium probe assay was followed as described on Example 2. Peptides were assessed at concentrations between 0.1 and 100 μM and incubated for 1 hour together with Fluo-4 NW probe. Afterwards, M3 activity was determined by reading the fluorescence in a FLUOstar Galaxy reader (BMG LabTechnologies) using 485 nm filter for excitation and 520 nm for emission, recording signal before and after M3 activation with acetylcholine. Fluorescence measurements were standardized with regard to the maximum fluorescence signal detected with acetylcholine stimulation in vehicle treated cells. Inhibition values of M3 activity were calculated as percentages by considering maximum fluorescence corresponding to acetylcholine-M3 activation and minimum as non-stimulated cells. Percentage inhibition data was fitted to a sigmoidal curve to obtain IC50. Table F details inhibition values for IC50

[5] = target: T1, human muscarinic receptor M3; assay: Time-dependent inhibition of M3 activity, Fluo-4 NW calcium fluorescence; type: cell-based; conditions: peptide 50 μM, read-out: % Inhibition hM3 receptor activity
Procedure: Peptides of invention were designed to target the intracellular region of M3. Therefore, minimum time required to detect inhibitory effect on M3 activity was evaluated. For this purpose, inhibitory effect of peptides Seq. […] Epithelial stable cell line constitutively expressing human muscarinic receptor M3 was used to assess peptides activity. Cells were seeded in 96-well plates at 50% cell confluence in 100 μL of complete Ham's F-12 medium. After 24 hours, medium was removed and cells were incubated with 90 μL/well of Fluo-4 NW (Invitrogen) fluorescent calcium probe assay buffer containing probenecid, following manufacturer's instructions at 37° C. in a CO2 incubator. Peptides (50 μM), vehicle and atropine were incubated either with the probe (1 hour pre-incubation) or during fluorescence reading (direct effect). Afterwards, M3 activity was recorded for 20 cycles and direct effect peptides were added on cycle 3 after baseline assessment. Acetylcholine was added on cycle 13. Therefore, direct effect of peptides was monitored for 25 minutes. Inhibition values of M3 activity were calculated as percentages by considering maximum fluorescence corresponding to vehicle or non-treated cells acetylcholine-M3 activation and minimum as non-stimulated cells. Table E details inhibition values of M3 activity inhibition obtained for the peptides of invention.

For `CCCCCCCCCCCCCCCC(=O)N[C@@H](Cc1c[nH]c2ccccc12)C(=O)N[C@@H](CCSC)C(=O)N[C@@H](CCCNC(=N)N)C(=O)N[C@@H](CC(C)C)C(=O)N[C@@H](CCCCN)C(N)=O` [Seq. ID No. 2 Palmitoyl, Palm-WMRLK-NH2] (Palmitoyl-WMRLK-NH2), the sweating inhibition [1] was “significant sweating inhibition”, the inhibition at 10 µM ([2]; peptide 10 μM) was 62.5% and the inhibition at 50 µM ([2]; peptide 50 μM) was 85.4%. For the same molecule, the inhibition at 100 µM ([2]; peptide 100 μM) was 88.6%, the reduction of sweating [3] was “significantly reduced sweating” and the pIC50 [4] was 5.14. It also gave an inhibition at 50 µM ([5]; 25 min, 25 minutes (direct effect)) of 25.5% and an inhibition at 50 µM ([5]; 60 minutes (1 hour pre-incubation)) of 81%.
